Values quoted from earlier work, collected in patent US20080038364A1, “Methods of processing body parts for surgery” (priority 2006, published 2008).
Read-outs that look alike come from different tables or passages of the source.

Experiments:
[1] = system: bacteria, viruses and other microorganisms; conditions: compared with chlorine

O=[O+][O-] [ozone]
CT for Giardia Inactivation (Giardia; 0.5 log inactivation, 5 °C): 0.32 CT units | CT for Giardia Inactivation (Giardia; 0.5 log inactivation, 10 °C): 0.23 CT units | CT for Giardia Inactivation (Giardia; 0.5 log inactivation, 15 °C): 0.16 CT units | CT for Giardia Inactivation (Giardia; 0.5 log inactivation, 20 °C): 0.12 CT units | CT for Giardia Inactivation (Giardia; 0.5 log inactivation, 25 °C): 0.08 CT units | CT for Giardia Inactivation (Giardia; 1.0 log inactivation, 5 °C): 0.63 CT units | CT for Giardia Inactivation (Giardia; 1.0 log inactivation, 10 °C): 0.48 CT units | CT for Giardia Inactivation (Giardia; 1.0 log inactivation, 15 °C): 0.32 CT units | CT for Giardia Inactivation (Giardia; 1.0 log inactivation, 20 °C): 0.24 CT units | CT for Giardia Inactivation (Giardia; 1.0 log inactivation, 25 °C): 0.16 CT units | CT for Giardia Inactivation (Giardia; 1.5 log inactivation, 5 °C): 0.95 CT units | CT for Giardia Inactivation (Giardia; 1.5 log inactivation, 10 °C): 0.72 CT units | CT for Giardia Inactivation (Giardia; 1.5 log inactivation, 15 °C): 0.48 CT units | CT for Giardia Inactivation (Giardia; 1.5 log inactivation, 20 °C): 0.36 CT units | CT for Giardia Inactivation (Giardia; 1.5 log inactivation, 25 °C): 0.24 CT units | CT for Giardia Inactivation (Giardia; 2.0 log inactivation, 5 °C): 1.3 CT units | CT for Giardia Inactivation (Giardia; 2.0 log inactivation, 10 °C): 0.95 CT units | CT for Giardia Inactivation (Giardia; 2.0 log inactivation, 15 °C): 0.63 CT units | CT for Giardia Inactivation (Giardia; 2.0 log inactivation, 20 °C): 0.48 CT units | CT for Giardia Inactivation (Giardia; 2.0 log inactivation, 25 °C): 0.32 CT units | CT for Giardia Inactivation (Giardia; 2.5 log inactivation, 5 °C): 1.6 CT units | CT for Giardia Inactivation (Giardia; 2.5 log inactivation, 10 °C): 1.2 CT units | CT for Giardia Inactivation (Giardia; 2.5 log inactivation, 15 °C): 0.79 CT units | CT for Giardia Inactivation (Giardia; 2.5 log inactivation, 20 °C): 0.60 CT units | CT for Giardia Inactivation (Giardia; 2.5 log inactivation, 25 °C): 0.40 CT units | CT for Giardia Inactivation (Giardia; 3.0 log inactivation, 5 °C): 1.9 CT units | CT for Giardia Inactivation (Giardia; 3.0 log inactivation, 10 °C): 1.4 CT units | CT for Giardia Inactivation (Giardia; 3.0 log inactivation, 15 °C): 0.95 CT units | CT for Giardia Inactivation (Giardia; 3.0 log inactivation, 20 °C): 0.72 CT units | CT for Giardia Inactivation (Giardia; 3.0 log inactivation, 25 °C): 0.48 CT units | CT for Virus Inactivation (virus organisms; 2.0 log inactivation, 5 °C): 0.6 CT units | CT for Virus Inactivation (virus organisms; 2.0 log inactivation, 10 °C): 0.5 CT units | CT for Virus Inactivation (virus organisms; 2.0 log inactivation, 15 °C): 0.3 CT units | CT for Virus Inactivation (virus organisms; 2.0 log inactivation, 20 °C): 0.25 CT units | CT for Virus Inactivation (virus organisms; 2.0 log inactivation, 25 °C): 0.15 CT units | CT for Virus Inactivation (virus organisms; 3.0 log inactivation, 5 °C): 0.9 CT units | CT for Virus Inactivation (virus organisms; 3.0 log inactivation, 10 °C): 0.8 CT units | CT for Virus Inactivation (virus organisms; 3.0 log inactivation, 15 °C): 0.5 CT units | CT for Virus Inactivation (virus organisms; 3.0 log inactivation, 20 °C): 0.4 CT units | CT for Virus Inactivation (virus organisms; 3.0 log inactivation, 25 °C): 0.25 CT units | CT for Virus Inactivation (virus organisms; 4.0 log inactivation, 5 °C): 1.2 CT units | CT for Virus Inactivation (virus organisms; 4.0 log inactivation, 10 °C): 1.0 CT units | CT for Virus Inactivation (virus organisms; 4.0 log inactivation, 15 °C): 0.6 CT units | CT for Virus Inactivation (virus organisms; 4.0 log inactivation, 20 °C): 0.5 CT units | CT for Virus Inactivation (virus organisms; 4.0 log inactivation, 25 °C): 0.3 CT units | disinfectant power relative to chlorine [1]: 10 times | half-life of ozone gas breaking down to oxygen: 20 min
